Test: Stability of the free base of the conjugate by HPLC at 20 and 40° C.
Format: physicochemical
Method: HPLC analyses were performed on a Water 2695 Separations Module, using a Luna C18 (2) 50 mm×4.6 mm×3 um column, a 5 μl injection volume and a 2487 dual wavelength detector under the following instrumental conditions: Mobile phase A: 0.1% formic acid; Mobile phase B: acetonitrile; Flow rate: 0.5 ml per minute; Mobile phase gradient: 0.0 minutes 90% A, 10% B, 14.0 minutes 20% A, 80% B, 15.0 minutes 90% A, 10% B and 20.0 minutes 90% A, 10% B; Run time: 20 minutes; Detection: UV at 254 nm; Column temperature: 40° C.
The stability of neat free base of the chemical conjugate was determined by performing an HPLC analysis daily during a period of 24 days and determining the appearance of its degradation products perphenazine and GABA. Samples of the neat free base of the conjugate were collected after deprotection of AN-197 with TFA, as described in the preparation of the maleate and oxalate salts, using the general procedure described above in Example 9, were dissolved in the mobile phase solution which was used in the HPLC analysis (2:1 acetonitrile:water, pH 8) and were kept to either at 20° C. or at 40° C.

[1] = in HPLC mobile phase (2:1 acetonitrile:water, pH 8), kept at 20° C., 0 hours
[2] = in HPLC mobile phase (2:1 acetonitrile:water, pH 8), kept at 40° C., 0 hours
[3] = in HPLC mobile phase, kept at 20° C., 24 hours
[4] = in HPLC mobile phase, kept at 20° C., 168 hours
[5] = in HPLC mobile phase, kept at 20° C., 336 hours
[6] = in HPLC mobile phase, kept at 20° C., 504 hours
[7] = in HPLC mobile phase, kept at 20° C., 576 hours
[8] = in HPLC mobile phase, kept at 40° C., 24 hours
[9] = in HPLC mobile phase, kept at 40° C., 168 hours
[10] = in HPLC mobile phase, kept at 40° C., 336 hours
[11] = in HPLC mobile phase, kept at 40° C., 504 hours
[12] = in HPLC mobile phase, kept at 40° C., 576 hours

Structure (SMILES): NCCCC(=O)OCCN1CCN(CCCN2c3ccccc3Sc3ccc(Cl)cc32)CC1 [Free base]
- stability in words (at both temperatures (20° C. and 40° C.)): highly unstable
- relative peak area degradation to perphenazine (first 24 hours, sample kept at 20° C.): approximately 5%
- free base degraded to perphenazine (first 24 hours, sample kept at 40° C.): more than 20%
- Free base % area [1]: 98.50 % area
- Perphenazine % area [1]: 1.50 % area
- Free base % area [2]: 98.50 % area
- Perphenazine % area [2]: 1.50 % area
- Free base % area [3]: 95.05 % area
- Perphenazine % area [3]: 4.95 % area
- Free base % area [4]: 74.71 % area
- Perphenazine % area [4]: 25.29 % area
- Free base % area [5]: 61.63 % area
- Perphenazine % area [5]: 38.37 % area
- Free base % area [6]: 53.35 % area
- Perphenazine % area [6]: 46.65 % area
- Free base % area [7]: 47.23 % area
- Perphenazine % area [7]: 52.77 % area
- Free base % area [8]: 78.74 % area
- Perphenazine % area [8]: 21.26 % area
- Free base % area [9]: 20.09 % area
- Perphenazine % area [9]: 79.91 % area
- Free base % area [10]: 6.12 % area
- Perphenazine % area [10]: 93.88 % area
- Free base % area [11]: 5.52 % area
- Perphenazine % area [11]: 94.48 % area
- Free base % area [12]: 3.93 % area
- Perphenazine % area [12]: 96.07 % area

— US20090298814A1, “Novel salts of conjugated psychotropic drugs and processes of preparing same” (RAMOT AT TEL AVIV UNIVERISTY LTD, priority 2005, published 2009)
